Peptide text beside a SMILES is read from it.
System: not listed separately
Test: Biological activity for bradykinin potentiating pentapeptide as the logarithm of the relative activity index compared to the reference molecule (Val-Glu-Ser-Ser-Lys).
Type: functional
Conditions: not given

Row | Compound | Log RAI
1 | H-RKWAP-OH | 1.98
2 | H-VEWVK-OH | 1.71
3 | H-VAAWK-OH | 0.23
4 | H-VEASK-OH | 0.2
5 | H-VELAK-OH | 0.59
6 | H-EKWAP-OH | 1.3
7 | H-PGFSP-OH | 0.9
8 | H-VAWAA-OH | 1.43
9 | H-VEAAP-OH | 0.18
10 | H-FEAAK-OH | 0.3
11 | H-GEAAK-OH | -0.52
12 | H-RYLPT-OH | 0.4
13 | H-VEAAK-OH | 0.51
14 | H-VESAK-OH | 0.28
15 | H-VKWAA-OH | 1.71
16 | H-VEHAK-OH | 1.53

Row | Compound | Log RAI
17 | H-VWAAK-OH | 0.04
18 | H-VAAAK-OH | -0.1
19 | H-AAWAA-OH | 0.75
20 | H-VEFAK-OH | 1.57
21 | H-VKWAP-OH | 2.35
22 | C[C@H](N)C(=O)N[C@@H](C)C(=O)N[C@@H](Cc1ccc(O)cc1)C(=O)N[C@@H](C)C(=O)N[C@@H](C)C(=O)O | 0.46
23 | H-FSPFR-OH | 0.64
24 | C[C@H](N)C(=O)N[C@@H](C)C(=O)N[C@@H](C)C(=O)N[C@@H](C)C(=O)N[C@@H](C)C(=O)O | -0.1
25 | H-VEGGK-OH | -1
26 | H-VKAAK-OH | 0.11
27 | NCC(=O)NCC(=O)NCC(=O)NCC(=O)NCC(=O)O | 0
28 | H-VEWAK-OH | 2.73
29 | H-VESSK-OH | 0
30 | H-VAWAK-OH | 1.45
31 | H-LEAAK-OH | 0.4

Target: T1, Substance-K receptor (Mesocricetus auratus, UniProt P51144)
T1 sequence (P51144 whole entry): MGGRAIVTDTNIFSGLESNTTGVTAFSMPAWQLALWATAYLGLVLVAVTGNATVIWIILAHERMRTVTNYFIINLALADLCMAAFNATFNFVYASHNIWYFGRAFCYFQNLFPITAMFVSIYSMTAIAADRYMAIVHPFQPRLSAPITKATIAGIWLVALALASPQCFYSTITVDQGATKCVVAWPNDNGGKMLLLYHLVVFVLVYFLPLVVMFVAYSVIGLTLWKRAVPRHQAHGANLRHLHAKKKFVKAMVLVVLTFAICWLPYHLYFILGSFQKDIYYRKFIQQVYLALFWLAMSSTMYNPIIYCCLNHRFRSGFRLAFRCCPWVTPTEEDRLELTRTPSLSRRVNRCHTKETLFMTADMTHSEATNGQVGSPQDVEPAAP
Test: Antagonist activity against Tachykinin receptor 2 was measured by Hamster isolated trachea(HT) assay.
Type: functional, tissue-based
Conditions: read-out: pA2 (converted)

Row | Compound | Kb
32 | CC(C)[C@H](NC(=O)[C@@H](Cc1c[nH]c2ccccc12)NC(=O)[C@H](Cc1ccc(O)cc1)NC(=O)[C@@H](N)CC(N)=O)C(=O)N[C@H](Cc1c[nH]c2ccccc12)C(=O)N[C@H](Cc1c[nH]c2ccccc12)C(=O)N[C@@H](CCCN=C(N)N)C(=O)O | 1.17 µM
33 | CC(C)[C@H](NC(=O)[C@@H](Cc1c[nH]c2ccccc12)NC(=O)[C@H](CCCCN)NC(=O)[C@@H](N)CC(=O)O)C(=O)N[C@H](Cc1c[nH]c2ccccc12)C(=O)N[C@H](Cc1c[nH]c2ccccc12)C(=O)N[C@@H](CCCCN)C(=O)O | 4.17 µM
34 | CC(C)[C@H](NC(=O)[C@@H](Cc1c[nH]c2ccccc12)NC(=O)[C@H](Cc1ccc(O)cc1)NC(=O)[C@@H](N)CCC(N)=O)C(=O)N[C@H](Cc1c[nH]c2ccccc12)C(=O)N[C@H](Cc1c[nH]c2ccccc12)C(=O)N[C@@H](Cc1ccccc1)C(=O)O | 1.74 µM

Target: Angiotensin-converting enzyme (Homo sapiens, UniProt P12821)
Sequence (P12821 whole entry): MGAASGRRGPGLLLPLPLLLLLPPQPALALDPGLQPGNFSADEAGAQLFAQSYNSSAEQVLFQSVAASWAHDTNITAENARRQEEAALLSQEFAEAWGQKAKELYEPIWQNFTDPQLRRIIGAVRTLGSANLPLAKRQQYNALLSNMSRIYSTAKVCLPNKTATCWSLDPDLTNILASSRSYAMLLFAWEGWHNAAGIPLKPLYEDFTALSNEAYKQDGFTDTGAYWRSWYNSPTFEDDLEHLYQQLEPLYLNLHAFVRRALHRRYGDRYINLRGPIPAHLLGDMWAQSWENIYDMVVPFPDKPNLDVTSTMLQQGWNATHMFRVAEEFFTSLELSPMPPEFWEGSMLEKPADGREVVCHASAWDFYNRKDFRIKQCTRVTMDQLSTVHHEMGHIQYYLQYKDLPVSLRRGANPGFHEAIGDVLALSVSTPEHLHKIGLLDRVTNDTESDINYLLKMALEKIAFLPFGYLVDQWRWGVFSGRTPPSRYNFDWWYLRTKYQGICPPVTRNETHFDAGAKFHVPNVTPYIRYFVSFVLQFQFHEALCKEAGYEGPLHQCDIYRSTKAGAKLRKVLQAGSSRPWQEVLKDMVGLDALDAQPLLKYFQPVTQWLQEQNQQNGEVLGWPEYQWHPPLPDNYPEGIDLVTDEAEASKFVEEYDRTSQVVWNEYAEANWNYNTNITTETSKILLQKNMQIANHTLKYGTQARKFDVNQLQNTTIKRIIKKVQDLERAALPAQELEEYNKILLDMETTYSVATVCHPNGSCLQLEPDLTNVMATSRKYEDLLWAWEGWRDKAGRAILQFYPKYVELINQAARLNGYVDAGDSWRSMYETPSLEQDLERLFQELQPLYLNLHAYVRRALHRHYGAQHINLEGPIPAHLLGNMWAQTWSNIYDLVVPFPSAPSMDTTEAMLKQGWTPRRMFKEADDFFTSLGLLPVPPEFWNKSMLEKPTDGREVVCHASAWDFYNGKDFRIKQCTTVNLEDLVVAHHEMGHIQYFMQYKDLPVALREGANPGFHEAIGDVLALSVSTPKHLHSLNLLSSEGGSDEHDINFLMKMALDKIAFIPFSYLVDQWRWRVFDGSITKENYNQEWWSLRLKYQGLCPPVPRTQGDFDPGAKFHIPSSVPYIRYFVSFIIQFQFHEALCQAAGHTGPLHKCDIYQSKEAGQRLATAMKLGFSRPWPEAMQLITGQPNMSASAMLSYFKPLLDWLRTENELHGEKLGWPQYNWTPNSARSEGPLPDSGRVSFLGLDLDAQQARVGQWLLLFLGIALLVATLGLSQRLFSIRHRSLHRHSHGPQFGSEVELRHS
Test: Biological activity was measured against Angiotensin I converting enzyme
Conditions: read-out: Log 1/IC50 (converted)

Row | Compound | IC50
35 | CC(C)C[C@H](NC(=O)[C@@H](N)Cc1c[nH]cn1)C(=O)O (H-His-Leu-OH) | 3240 µM
36 | NCC(=O)N[C@@H](Cc1c[nH]c2ccccc12)C(=O)O (H-Gly-Trp-OH) | 30.2 µM
37 | NCCCC[C@H](N)C(=O)NCC(=O)O (H-Lys-Gly-OH) | 3240 µM
38 | CC(C)C[C@H](N)C(=O)NCC(=O)O (H-Leu-Gly-OH) | 8710 µM
39 | C[C@H](NC(=O)CN)C(=O)O (H-Gly-Ala-OH) | 2000 µM
40 | NCC(=O)N[C@@H](Cc1c[nH]cn1)C(=O)O (H-Gly-His-OH) | 3090 µM
41 | C[C@H](N)C(=O)N[C@@H](Cc1ccc(O)cc1)C(=O)O (H-Ala-Tyr-OH) | 87.1 µM
42 | C[C@H](NC(=O)[C@@H](N)CC(=O)O)C(=O)O (H-Asp-Ala-OH) | 3800 µM
43 | CC[C@H](C)[C@H](NC(=O)CN)C(=O)O (H-Gly-Ile-OH) | 1200 µM
44 | NCC(=O)N[C@@H](CO)C(=O)O (H-Gly-Ser-OH) | 3800 µM
45 | NC(=O)CC[C@H](N)C(=O)NCC(=O)O (H-Gln-Gly-OH) | 7410 µM
46 | C[C@H](O)[C@H](N)C(=O)NCC(=O)O | 10000 µM
47 | C[C@H](N)C(=O)NCC(=O)O (H-Ala-Gly-OH) | 2510 µM
48 | CC[C@H](C)[C@H](N)C(=O)N[C@@H](Cc1ccccc1)C(=O)O (H-Ile-Phe-OH) | 933 µM
49 | NC(N)=NCCC[C@H](N)C(=O)N[C@@H](Cc1c[nH]c2ccccc12)C(=O)O (H-Arg-Trp-OH) | 15.8 µM
50 | N[C@@H](Cc1c[nH]cn1)C(=O)NCC(=O)O (H-His-Gly-OH) | 6310 µM
51 | C[C@H](N)C(=O)N[C@@H](C)C(=O)O (H-Ala-Ala-OH) | 617 µM
52 | CSCC[C@H](NC(=O)CN)C(=O)O | 1410 µM
53 | N[C@@H](CCC(=O)O)C(=O)NCC(=O)O (H-Glu-Gly-OH) | 10000 µM
54 | CC(C)[C@H](NC(=O)CN)C(=O)O (H-Gly-Val-OH) | 4570 µM
55 | NCC(=O)N[C@@H](CCC(N)=O)C(=O)O (H-Gly-Gln-OH) | 7080 µM
56 | N=C(N)NCCC[C@H](N)C(=O)N1CCC[C@@H]1C(=O)O | 182 µM
57 | N[C@@H](CC(=O)O)C(=O)NCC(=O)O (H-Asp-Gly-OH) | 14100 µM

Row | Compound | IC50
58 | C[C@@H](O)[C@H](NC(=O)CN)C(=O)O (H-Gly-Thr-OH) | 5750 µM
59 | CC[C@H](C)[C@H](N)C(=O)N[C@@H](Cc1c[nH]c2ccccc12)C(=O)O | 2 µM
60 | N[C@@H](Cc1c[nH]c2ccccc12)C(=O)NCC(=O)O (H-Trp-Gly-OH) | 5890 µM
61 | C[C@H](NC(=O)[C@@H](N)CCC(=O)O)C(=O)O (H-Glu-Ala-OH) | 10000 µM
62 | CC(C)C[C@H](N)C(=O)N[C@@H](C)C(=O)O [LEU-ALA] (H-Leu-Ala-OH) | 309 µM
63 | CC[C@H](C)[C@H](N)C(=O)N1CCCC1C(=O)O (single isomer, unassigned) | 129 µM
64 | C[C@H](NC(=O)[C@@H](N)CCCCN)C(=O)O (H-Lys-Ala-OH) | 380 µM
65 | CC(C)[C@H](N)C(=O)NCC(=O)O [VAL-GLY] (H-Val-Gly-OH) | 1100 µM
66 | CC[C@H](C)[C@H](N)C(=O)NCC(=O)O (H-Ile-Gly-OH) | 1200 µM
67 | C[C@H](NC(=O)[C@@H](N)Cc1ccc(O)cc1)C(=O)O | 457 µM
68 | N[C@@H](CO)C(=O)NCC(=O)O (H-Ser-Gly-OH) | 8510 µM
69 | CSCC[C@H](N)C(=O)NCC(=O)O (H-Met-Gly-OH) | 4790 µM
70 | NCC(=O)NCC(=O)O (H-Gly-Gly-OH) | 7240 µM
71 | C[C@H](NC(=O)[C@@H](N)CCCN=C(N)N)C(=O)O (H-Arg-Ala-OH) | 457 µM
72 | N=C(N)NCCC[C@H](NC(=O)CN)C(=O)O (H-Gly-Arg-OH) | 3240 µM
73 | NCC(=O)N[C@@H](Cc1ccc(O)cc1)C(=O)O (H-Gly-Tyr-OH) | 209 µM
74 | CC(C)[C@H](N)C(=O)N[C@@H](Cc1ccc(O)cc1)C(=O)O (H-Val-Tyr-OH) | 21.9 µM
75 | N=C(N)NCCC[C@H](NC(=O)[C@@H](N)Cc1ccccc1)C(=O)O (H-Phe-Arg-OH) | 912 µM
76 | C[C@H](N)C(=O)N[C@@H](Cc1c[nH]c2ccccc12)C(=O)O (H-Ala-Trp-OH) | 10 µM
77 | NCC(=O)N[C@@H](CC(=O)O)C(=O)O (H-Gly-Asp-OH) | 9120 µM
78 | N=C(N)NCCC[C@H](N)C(=O)N[C@@H](Cc1ccccc1)C(=O)O | 229 µM
79 | NCC(=O)N[C@@H](CCC(=O)O)C(=O)O (H-Gly-Glu-OH) | 5370 µM
80 | NCCCC[C@H](NC(=O)CN)C(=O)O (H-Gly-Lys-OH) | 5370 µM

Target: T2, Substance-K receptor (Oryctolagus cuniculus, UniProt P79218)
T2 sequence (P79218 whole entry): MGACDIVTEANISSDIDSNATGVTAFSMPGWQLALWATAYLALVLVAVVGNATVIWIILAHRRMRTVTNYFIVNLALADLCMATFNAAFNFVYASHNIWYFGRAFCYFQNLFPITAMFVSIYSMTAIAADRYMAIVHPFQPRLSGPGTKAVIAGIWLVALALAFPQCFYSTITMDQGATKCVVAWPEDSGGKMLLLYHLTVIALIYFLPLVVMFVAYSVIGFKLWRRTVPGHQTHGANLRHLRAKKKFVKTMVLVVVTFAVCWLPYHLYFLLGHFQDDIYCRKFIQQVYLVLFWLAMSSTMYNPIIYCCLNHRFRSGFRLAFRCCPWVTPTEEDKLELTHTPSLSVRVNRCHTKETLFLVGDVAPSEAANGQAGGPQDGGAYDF
Test: Antagonist activity against Tachykinin receptor 2 was measured by Rabbit pulmonary artery(RPA) assay.
Type: functional
Conditions: read-out: pA2 (converted)

Row | Compound | Kb
81 | CC(C)[C@H](NC(=O)[C@@H](Cc1c[nH]c2ccccc12)NC(=O)[C@H](Cc1ccc(O)cc1)NC(=O)[C@@H](N)CC(N)=O)C(=O)N[C@H](Cc1c[nH]c2ccccc12)C(=O)N[C@H](Cc1c[nH]c2ccccc12)C(=O)N[C@@H](CCCN=C(N)N)C(=O)O | 0.0646 µM
82 | CC(C)[C@H](NC(=O)[C@@H](Cc1c[nH]c2ccccc12)NC(=O)[C@H](CCCCN)NC(=O)[C@@H](N)CC(=O)O)C(=O)N[C@H](Cc1c[nH]c2ccccc12)C(=O)N[C@H](Cc1c[nH]c2ccccc12)C(=O)N[C@@H](CCCCN)C(=O)O | 100 µM
83 | CC(C)[C@H](NC(=O)[C@@H](Cc1c[nH]c2ccccc12)NC(=O)[C@H](Cc1ccc(O)cc1)NC(=O)[C@@H](N)CCC(N)=O)C(=O)N[C@H](Cc1c[nH]c2ccccc12)C(=O)N[C@H](Cc1c[nH]c2ccccc12)C(=O)N[C@@H](Cc1ccccc1)C(=O)O | 1.66 µM

Target: T3, Substance-K receptor (Rattus norvegicus, UniProt P16610)
T3 sequence (P16610 whole entry): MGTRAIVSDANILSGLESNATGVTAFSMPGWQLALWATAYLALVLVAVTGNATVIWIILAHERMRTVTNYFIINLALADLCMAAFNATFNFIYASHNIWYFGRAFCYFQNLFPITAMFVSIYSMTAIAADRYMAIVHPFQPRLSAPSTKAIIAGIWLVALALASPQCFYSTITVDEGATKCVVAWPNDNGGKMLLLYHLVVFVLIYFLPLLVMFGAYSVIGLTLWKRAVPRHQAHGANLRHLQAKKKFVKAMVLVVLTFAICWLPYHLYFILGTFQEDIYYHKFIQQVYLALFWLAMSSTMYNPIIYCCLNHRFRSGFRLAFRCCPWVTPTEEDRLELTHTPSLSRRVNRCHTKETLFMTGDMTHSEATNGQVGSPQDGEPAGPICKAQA
Test: Antagonism against Tachykinin receptor 2 in rat vas deferens(RVD)
Type: functional
Conditions: read-out: pA2 (converted)

Row | Compound | Kb
84 | CC(C)[C@H](NC(=O)[C@@H](Cc1c[nH]c2ccccc12)NC(=O)[C@H](Cc1ccc(O)cc1)NC(=O)[C@@H](N)CC(N)=O)C(=O)N[C@H](Cc1c[nH]c2ccccc12)C(=O)N[C@H](Cc1c[nH]c2ccccc12)C(=O)N[C@@H](CCCN=C(N)N)C(=O)O | 0.347 µM

— ChEMBL document CHEMBL1128468, “Amino acid side chain descriptors for quantitative structure-activity relationship studies of peptide analogues” (J Med Chem, 1995)
